In ChEMBL document CHEMBL6121034, “Expanding the Chemical Space of Reverse Fosmidomycin Analogs” (ACS Med Chem Lett, 2025):
pIC50: −log10 of the molar value. Converted amounts (≈) assume the structure as drawn.

Columns and labels:
Escherichia coli [1] = experiment: Antibacterial activity against Escherichia coli incubated for 20 hrs; assay type: functional
[2] = target: T1, 1-deoxy-D-xylulose 5-phosphate reductoisomerase (Mycobacterium tuberculosis, UniProt P9WNS1); experiment: Inhibition of recombinant Mycobacterium tuberculosis DXR extracted from Escherichia coli M15 using DXP as substrate by NADPH consumption based photometric assay
T1 sequence (P9WNS1 whole entry): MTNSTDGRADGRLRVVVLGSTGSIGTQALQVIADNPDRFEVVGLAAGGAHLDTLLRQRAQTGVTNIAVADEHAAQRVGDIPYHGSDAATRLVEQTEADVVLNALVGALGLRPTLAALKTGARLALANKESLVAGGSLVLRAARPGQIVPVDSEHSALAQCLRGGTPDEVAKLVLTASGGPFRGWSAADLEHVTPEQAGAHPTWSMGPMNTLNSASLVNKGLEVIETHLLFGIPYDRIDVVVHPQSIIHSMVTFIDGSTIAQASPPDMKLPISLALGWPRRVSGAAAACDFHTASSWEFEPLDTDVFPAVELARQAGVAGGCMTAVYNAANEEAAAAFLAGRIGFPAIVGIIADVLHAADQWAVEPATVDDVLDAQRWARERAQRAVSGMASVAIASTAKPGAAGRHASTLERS

Plasmodium falciparum [3] = experiment: Antiparasitic activity against multidrug-resistant Plasmodium falciparum Dd2 at asexual stage infected in O Rh+ erythrocytes by ELISA method; assay type: functional, organism-based; details: Dd2, Erythrocyte
Escherichia coli [4] = experiment: Antibacterial activity against Escherichia coli ATCC 25922 […] by CLSI based broth microdilution assay; assay type: functional
[5] = target: T2, 1-deoxy-D-xylulose 5-phosphate reductoisomerase (Escherichia coli K-12, UniProt P45568); experiment: Inhibition of recombinant Escherichia coli DXR extracted from Escherichia coli M15 using DXP as substrate by NADPH consumption based photometric assay
T2 sequence (P45568 whole entry): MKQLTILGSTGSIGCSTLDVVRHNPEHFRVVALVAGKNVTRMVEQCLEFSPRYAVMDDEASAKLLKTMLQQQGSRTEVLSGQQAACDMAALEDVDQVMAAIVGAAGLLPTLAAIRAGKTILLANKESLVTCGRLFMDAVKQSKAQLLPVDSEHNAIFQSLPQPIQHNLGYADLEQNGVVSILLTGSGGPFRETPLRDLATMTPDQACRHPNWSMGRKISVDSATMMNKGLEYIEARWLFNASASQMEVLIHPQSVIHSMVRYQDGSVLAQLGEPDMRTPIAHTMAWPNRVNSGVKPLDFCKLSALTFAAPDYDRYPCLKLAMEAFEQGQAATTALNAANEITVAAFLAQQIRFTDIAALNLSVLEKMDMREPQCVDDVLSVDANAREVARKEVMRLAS

Plasmodium falciparum [6] = experiment: Antiparasitic activity against CQ-sensitive Plasmodium falciparum 3D7 at asexual stage infected in O Rh+ erythrocytes by ELISA; assay type: functional, organism-based; details: 3D7, Erythrocyte
[7] = Selectivity ratio of IC50 for antiparasitic activity against CQ-sensitive Plasmodium falciparum 3D7 at asexual stage infected in O Rh+ erythrocytes to IC50 for inhibition of Plasmodium falciparum DXR extracted from Escherichia coli
[8] = Selectivity ratio of IC50 for antiparasitic activity against multidrug-resistant Plasmodium falciparum Dd2 at asexual stage infected in O Rh+ erythrocytes to IC50 for inhibition of Plasmodium falciparum DXR extracted from Escherichia coli
[9] = test system: Mycobacterium tuberculosis; experiment: Antibacterial activity against wild-type Mycobacterium tuberculosis H37Rv incubated for 5 days by CLSI based broth microdilution assay; assay type: functional; details: 120 h, time 5 day
[10] = target: T3, 1-deoxy-D-xylulose 5-phosphate reductoisomerase, apicoplastic (Plasmodium falciparum (isolate 3D7), UniProt Q8IKG4); experiment: Inhibition of Plasmodium falciparum DXR extracted from Escherichia coli using DXP as substrate by NADPH consumption based photometric assay
T3 sequence (Q8IKG4 whole entry): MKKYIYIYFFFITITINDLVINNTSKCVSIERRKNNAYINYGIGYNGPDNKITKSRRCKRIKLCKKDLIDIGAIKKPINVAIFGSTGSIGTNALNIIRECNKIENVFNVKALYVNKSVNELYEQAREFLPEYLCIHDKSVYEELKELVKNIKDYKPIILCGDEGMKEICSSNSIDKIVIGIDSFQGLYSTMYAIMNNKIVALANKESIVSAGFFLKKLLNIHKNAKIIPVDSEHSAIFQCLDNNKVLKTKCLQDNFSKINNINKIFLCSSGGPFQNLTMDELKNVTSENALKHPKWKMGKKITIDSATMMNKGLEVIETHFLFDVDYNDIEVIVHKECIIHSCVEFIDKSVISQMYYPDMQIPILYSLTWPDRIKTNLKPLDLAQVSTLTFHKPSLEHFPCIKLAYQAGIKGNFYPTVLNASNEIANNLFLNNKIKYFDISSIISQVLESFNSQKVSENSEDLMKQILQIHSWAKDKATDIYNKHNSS

Compound | MIC (Escherichia coli [1]) [µM] | pIC50 [2] | pIC50 (Plasmodium falciparum [3]) | MIC (Escherichia coli [4]) [µM] | pIC50 [5] | pIC50 (Plasmodium falciparum [6]) | Ratio IC50 [7] | Ratio IC50 [8] | MIC [9] [µM] | pIC50 [10]
O=CN(O)CCCP(=O)(O)O [FOSMIDOMYCIN] | 6.25 (≈ 1.14 µg/mL) | – | – | – | – | – | – | – | – | –
CN(O)C(=O)CSC(c1ccc(OCCCCCCN2C(=O)c3ccccc3C2=O)cc1)P(=O)(O)O (racemic) | – | 6.80 | 5.72 | > 100 | 7.89 | 5.59 | 120 | 90 | > 100 | 7.68
CN(O)C(=O)CSC(c1cccc(OCCCCCCN2C(=O)c3ccccc3C2=O)c1)P(=O)(O)O (racemic) | – | 5.77 | 5.01 | > 100 | 7.17 | < 4.92 | >120 | 100 | > 100 | 7.01
CCCCCCOc1ccc(C(SCC(=O)N(C)O)P(=O)(O)O)cc1 (racemic) | – | 7.04 | 5.24 | > 100 | 7.77 | 5.10 | 170 | 120 | > 100 | 7.32
